Source: publication PMC12691669, “Inhibitors of the 20S proteasome β5 subunit as potent and selective agents against Trichomonas vaginalis” (Antimicrobial Agents and Chemotherapy, 2025)
“Also recorded” adds a separate entry of the source. Read-outs that look alike come from different tables or passages of the source.

Columns and labels:
[1] = tested on: T. vaginalis Tv20S proteasome β2 subunit; assay: In vitro proteasome assay, Ac-FRSR-amc substrate; format: biochemical, Trichomonas vaginalis; conditions: recombinant Tv20S, mean ± SD of three experiments
Procedure: (§1) The T. vaginalis proteasome was expressed in recombinant form as previously described ([27]). Briefly, Spodoptera frugiperda cells were co-infected with three baculovirus vectors carrying the T. vaginalis genes for the 7 α-subunits, 7 β-subunits, and the Ump-1 chaperone, respectively. The resulting proteasome complex was purified from cell lysates via streptavidin column and size exclusion chromatography and stored at −80°C. Purified human c20S proteasome and recombinant human proteasome activator PA28α ([21]) were obtained from Bio-Techne and stored at −80°C. Dilutions of the test agents were transferred to 384-well plates (Greiner Bio-One) in triplicate wells using an Echo 650 Acoustic Liquid Handler (Beckman Coulter). Six replicate plates were prepared for each compound for testing with three T. vaginalis-optimized substrates and three human-optimized substrates. After dispensing, plates were sealed and stored at −20°C. The following fluorescent substrates and final substrate concentrations were used to assay subunit activities of the T. vaginalis proteasome (Tv20S) ([28]) or the human constitutive proteasome (c20S) ([19], [52]): Ac-RYFD-amc (Genscript) at 100 µM for Tv20S β1 subunit, Ac-FRSR-amc (Genscript) at 20 µM for Tv20S β2 subunit, Ac-GWYL-amc (Genscript) at 20 µM for Tv20S β5 subunit, z-LLE-amc (R&D Systems) at 80 µM for c20S β1 subunit, z-VLR-amc (AdipoGen Life Sciences) at 30 µM for c20S β2 subunit, and suc-LLVY-amc (R&D Systems) at 65 µM for c20S β5 subunit. Substrates and proteasomes were diluted in an assay buffer consisting of HEPES pH 7.5 and 1 mM DTT. For the human proteasome assays, 2 nM c20S was incubated at room temperature with 200 nM PA28α for 1 h to activate the complex prior to addition to the 384-well plates containing the substrate-inhibitor mixtures. […] Both proteasomes were added to the wells at a 1 nM final assay concentration. Fluorescence was measured over 4 h at 360 nm excitation and 460 nm emission on a Biotek Synergy HTX plate reader.

[2] = molecular target: T. vaginalis Tv20S proteasome β1 subunit (Trichomonas vaginalis, UniProt A2E7Z2); assay: In vitro proteasome assay, Ac-RYFD-amc substrate; format: biochemical; conditions: recombinant Tv20S, mean ± SD of three experiments
Chain of T. vaginalis Tv20S proteasome β1 subunit (A2E7Z2 entry or part of it): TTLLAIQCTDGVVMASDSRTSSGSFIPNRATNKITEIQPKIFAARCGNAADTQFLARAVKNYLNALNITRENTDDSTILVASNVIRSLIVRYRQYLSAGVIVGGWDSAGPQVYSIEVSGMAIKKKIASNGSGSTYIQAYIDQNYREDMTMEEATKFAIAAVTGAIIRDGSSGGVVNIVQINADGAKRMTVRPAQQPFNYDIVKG
Procedure: as §1

[3] = molecular target: T. vaginalis Tv20S proteasome β5 subunit (Trichomonas vaginalis, UniProt A2DD57+A2F716); assay: biochemical; format: biochemical; conditions: recombinant Tv20S, mean ± SD of three experiments; for IC50: read-out: Tv20S proteasome inhibition of β5 subunit (IC50)
Chain of T. vaginalis Tv20S proteasome β5 subunit (A2DD57 entry or part of it): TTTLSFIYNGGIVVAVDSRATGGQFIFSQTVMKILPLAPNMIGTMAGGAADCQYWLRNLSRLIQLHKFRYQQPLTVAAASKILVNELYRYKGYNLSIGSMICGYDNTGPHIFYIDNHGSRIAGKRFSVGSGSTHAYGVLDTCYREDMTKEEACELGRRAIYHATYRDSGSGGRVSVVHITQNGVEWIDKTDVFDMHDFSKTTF
Chain of T. vaginalis Tv20S proteasome β5 subunit (A2F716 entry or part of it): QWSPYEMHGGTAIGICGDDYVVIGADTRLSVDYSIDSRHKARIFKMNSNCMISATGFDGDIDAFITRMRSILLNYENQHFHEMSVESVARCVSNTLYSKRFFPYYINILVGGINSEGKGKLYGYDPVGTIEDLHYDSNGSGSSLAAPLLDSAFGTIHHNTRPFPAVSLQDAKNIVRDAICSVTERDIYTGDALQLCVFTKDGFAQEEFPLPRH
Procedure: as §1

[4] = molecular target: T1, Human c20S proteasome β2 subunit (Homo sapiens, UniProt P49720+Q99436); assay: In vitro proteasome assay, z-VLR-amc substrate; format: biochemical
T1 construct: purchased Bio-Techne
Procedure: as §1

[5] = molecular target: T2, Human c20S proteasome β1 subunit (Homo sapiens, UniProt P28072+Q99436); assay: In vitro proteasome assay, z-LLE-amc substrate; format: biochemical; conditions: purified human c20S with PA28α, mean ± SD
T2 construct: purchased Bio-Techne
Procedure: as §1

[6] = tested on: human cell line HeLa; assay: 48 h cytotoxicity (growth and viability) assay in mammalian cells; format: cell-based
Procedure: The following T. vaginalis strains were used: F1623 ([50]), G3 (ATCC PRA-98), and LA1 ([25]). Parasites were grown at 37°C in TYM Diamond’s medium supplemented with 180 µM ferrous ammonium sulfate ([51]). Drug susceptibility assays were performed as described previously ([23]) with several minor modifications. Briefly, 10 mM stocks of the test compounds in DMSO were serially diluted 1:3 using an Echo 650 Acoustic Liquid Handler (Beckman Coulter). Subsequently, trophozoites (5 × 10^3/well) in TYM modified media were added to the wells in 384-well plates, and cultures were incubated for 24 h at 37°C under anaerobic conditions (AnaeroPack-Anaero System; Remel). For testing in mammalian cells, the following cell lines were used: Human cervical cancer cells HeLa (ATCC CCL-2), non-transformed mouse fibroblast cell line 3T3-L1 (ATCC CL-173), normal monkey kidney epithelial cell line Vero (ATCC CCL-81), and human B lymphoma cells Raji (ATCC CCL-86). […] Growth and viability of T. vaginalis and mammalian cells were determined with an ATP assay by adding the BacTiter-Glo Microbial Cell Viability Assay reagent (Promega) directly to the wells and measuring ATP-dependent luminescence in a microplate reader. […] Experiments were repeated at least three times, and the mean and SEM of the pGI50 values were calculated.

[7] = molecular target: T3, Human c20S proteasome β5 subunit (Homo sapiens, UniProt P20618+P28074); assay: In vitro proteasome assay, suc-LLVY-amc substrate; format: biochemical; conditions: purified human c20S with PA28α, mean ± SD
T3 construct: purchased Bio-Techne
Procedure: as §1

[8] = tested on: T. vaginalis strain F1623; assay: 24 h growth and survival assay (ATP luminescence, GI50); format: cell-based, Trichomonas vaginalis; conditions: for SI (ratio of GI50 in HeLa cells over GI50 in T. vaginalis): T. vaginalis F1623 vs human HeLa cells
Procedure: The following T. vaginalis strains were used: F1623 ([50]), G3 (ATCC PRA-98), and LA1 ([25]). […] Drug susceptibility assays were performed as described previously ([23]) with several minor modifications. Briefly, 10 mM stocks of the test compounds in DMSO were serially diluted 1:3 using an Echo 650 Acoustic Liquid Handler (Beckman Coulter). Subsequently, trophozoites (5 × 10^3/well) in TYM modified media were added to the wells in 384-well plates, and cultures were incubated for 24 h at 37°C under anaerobic conditions (AnaeroPack-Anaero System; Remel). For testing in mammalian cells, the following cell lines were used: Human cervical cancer cells HeLa (ATCC CCL-2), non-transformed mouse fibroblast cell line 3T3-L1 (ATCC CL-173), normal monkey kidney epithelial cell line Vero (ATCC CCL-81), and human B lymphoma cells Raji (ATCC CCL-86). Test compounds were serially diluted (1:3) and added to mammalian cell cultures grown in 384-well plates, and cultures were incubated for 48 h at 37°C in 5% CO2, 95% air. Growth and viability of T. vaginalis and mammalian cells were determined with an ATP assay by adding the BacTiter-Glo Microbial Cell Viability Assay reagent (Promega) directly to the wells and measuring ATP-dependent luminescence in a microplate reader. […] Experiments were repeated at least three times, and the mean and SEM of the pGI50 values were calculated.

[9] = tested on: β5 proteasome subunit in live T. vaginalis F1623 (compared to human HeLa cells); assay: Fluorescence gel assay of proteasome subunit targeting in live cells; format: cell-based, Trichomonas vaginalis; conditions: 3 h incubation, gel densitometry, T. vaginalis F1623 vs HeLa
Procedure: T. vaginalis F1623 and human HeLa cells were incubated for 3 h with proteasome inhibitors at a range of concentrations or with solvent as a control. Cells were lysed by three consecutive freeze/thaw cycles in a buffer of 50 mM HEPES, pH 7.5, 10 µM E64, 100 µM AEBSF, 10 µM RR11a, 1 µM Pepstatin, and 1 mM DTT. Protein concentrations were measured with the Pierce BCA assay (Thermo Scientific) and adjusted to 5 mg/mL. Samples were incubated with 2 µM Me4BodipyFL-Ahx3Leu3VS ([53]) at 2.5 mg/mL protein concentration for 24 h at 37°C. […] Band intensities were quantified using ImageJ (NIH). Each peak corresponding to a protein band was selected, and the area under the curve was determined after subtraction of the intensity in an adjacent area outside of the respective band. For closely spaced bands, the midpoint between the peaks of two bands was used to separate the areas. Band intensities were normalized to the respective controls, not incubated with inhibitors.

[10] = tested on: ubiquitin-conjugated proteins in T. vaginalis F1623; assay: Immunoblot analysis of ubiquitin labeling; format: cell-based, Trichomonas vaginalis; conditions: 3 h treatment, 30× GI50
Procedure: Protein concentrations were measured using the Pierce BCA assay (Thermo Scientific) and adjusted to 10 mg/mL. Proteins were fractionated on SDS-PAGE, transferred onto a nitrocellulose membrane (Bio-Rad), which was blocked with 5% non-fat dry milk in TBST buffer (20 mM Tris base, 150 mM NaCl, 0.05% Tween 20, pH adjusted to 7.6 with HCl) for 1 h and probed with primary anti-ubiquitin antibody (Proteintech, 10201-2-AP) at a 1:2,000 dilution, followed by incubation with anti-rabbit horseradish peroxidase (HRP)-conjugated IgG (Jackson laboratory) at a 1:5,000 dilution. HRP labeling was visualized by chemiluminescence (Immobilon, Millipore).

[11] = set-up: method as in PMID 30380863, PMID 36969170; conditions: at therapeutic concentrations; cited from earlier work
[12] = purified human c20S with PA28α, mean ± SD
[13] = read-out: Human c20S proteasome inhibition of β5 subunit (IC50)

Tv20S proteasome inhibition of β2 subunit (IC50) [1]	Tv20S proteasome inhibition of β1 subunit (IC50) [2]	Human c20S proteasome inhibition of β2 subunit (IC50) [4, 12]	IC50 [3] [nM]	IC50 [7, 13] [nM]	IC50 ([4]; purified human c20S with PA28α, mean ± SD, read-out: Human c20S proteasome inhibition of β2 subunit (IC50)) [nM]	IC50 ([5]; read-out: Human c20S proteasome inhibition of β1 subunit (IC50)) [nM]	Structure (SMILES)	Tv20S proteasome inhibition of β5 subunit (IC50) [3]	Human c20S proteasome inhibition of β1 subunit (IC50) [5]	growth inhibitory activity against human cells (in words) [6]	Human c20S proteasome inhibition of β5 subunit (IC50) [7]	growth inhibitory activity against T. vaginalis (in words) ([8]; F1623)	SI (ratio of GI50 in HeLa cells over GI50 in T. vaginalis) [8]	β5 inactivated in T. vaginalis at lower concentrations compared to human cells [9] [fold]	abundance of ubiquitin-labeled proteins [10]	IC50 [4] [nM]	IC50 ([7]; Human c20S proteasome inhibition of β5 subunit (IC50)) [nM]	effect on T-dependent antibody responses or number of circulating lymphocytes [11]
No inhibition	Activation	No inhibition	20.6 ± 5.39	379 ± 61.2			COc1ccc(CC(NC(=O)C(C)NC(=O)OCc2ccccc2)C(=O)NC(Cc2ccccc2)C(=O)C2(C)CO2)cc1 (stereo not drawn) [compound 12]		No inhibition				63.1	12	accumulation of ubiquitinated proteins			
No inhibition	Activation	No inhibition	43.7 ± 12.3	4100			CCCCCC(=O)NC(CC(=O)NC(CCCC)C(=O)NC(Cc1ccccc1)C(=O)C1(C)CO1)CC(=O)OC(C)(C)C (stereo not drawn) [compound 8]		No inhibition				218.8	22	accumulation of ubiquitinated proteins			
No inhibition	Activation		8.21 ± 1.16	11 ± 1.12	1690 ± 410	19700 ± 8580	COc1ccc(C[C@H](NC(=O)[C@H](C)NC(=O)C2=C(C)c3ccccc3C2)C(=O)N[C@@H](Cc2ccccc2)C(=O)[C@@]2(C)CO2)cc1 [compound 4]						21.4					

The next lines start with the compound.

Structure (SMILES)	Tv20S proteasome inhibition of β2 subunit (IC50) [1]	Tv20S proteasome inhibition of β1 subunit (IC50) [2]	Human c20S proteasome inhibition of β2 subunit (IC50) [4, 12]	IC50 [3] [nM]	IC50 [7, 13] [nM]	IC50 ([4]; purified human c20S with PA28α, mean ± SD, read-out: Human c20S proteasome inhibition of β2 subunit (IC50)) [nM]	IC50 ([5]; read-out: Human c20S proteasome inhibition of β1 subunit (IC50)) [nM]	Tv20S proteasome inhibition of β5 subunit (IC50) [3]	Human c20S proteasome inhibition of β1 subunit (IC50) [5]	growth inhibitory activity against human cells (in words) [6]	Human c20S proteasome inhibition of β5 subunit (IC50) [7]	growth inhibitory activity against T. vaginalis (in words) ([8]; F1623)	SI (ratio of GI50 in HeLa cells over GI50 in T. vaginalis) [8]	β5 inactivated in T. vaginalis at lower concentrations compared to human cells [9] [fold]	abundance of ubiquitin-labeled proteins [10]	IC50 [4] [nM]	IC50 ([7]; Human c20S proteasome inhibition of β5 subunit (IC50)) [nM]	effect on T-dependent antibody responses or number of circulating lymphocytes [11]
C=C(C)C(=O)[C@H](Cc1ccccc1)NC(=O)[C@H](Cc1ccc(OC)cc1)NC(=O)[C@H](C)NC(=O)C1=C(C)c2ccccc2C1 [compound 104]	did not inhibit; also recorded: No inhibition	did not inhibit; also recorded: No inhibition	no inhibitory activity; also recorded: No inhibition					did not inhibit; also recorded: No inhibition	no inhibitory activity; also recorded: No inhibition	only minimally inhibitory	no inhibitory activity; also recorded: No inhibition	only minimally inhibitory	1.05					
COc1ccc(CC(NC(=O)C(C)NC(=O)CN2CCOCC2)C(=O)NC(Cc2ccc(-c3ccccc3)cc2)C(=O)C2(C)CO2)cc1 (stereo not drawn) [compound 3]	No inhibition	Activation		12 ± 1.94					No inhibition				36.3			271 ± 26.4	18.1 ± 3.26	
COc1ccc([C@@H](O)[C@H](NC(=O)[C@H](C)NC(=O)CN2CCOCC2)C(=O)N[C@@H](CC2=CCCC2)C(=O)[C@@]2(C)CO2)cc1 [zetomipzomib, (2 S,3 R)-N-((S)-3-(Cyclopent-1-en-1-yl)-1-((R)-2-methyloxiran-2-yl)-1-oxopropan-2-yl)-3-hydroxy-3-(4-methoxyphenyl)-2-((S)-2-(2-morpholinoacetamido)propanamido)propenamide]																		did not significantly affect
